# Reference: ChEMBL document CHEMBL1201862, “PubChem BioAssay data set” (2004)
# Calls of active or inactive are those of the source.
# Assays:
# [1] = system: HEK293; test: cells; conditions: Homo sapiens
# [2] = system: HEK293; test: cells; conditions: Homo sapiens; remark: listed apart in the source
# [3] = target: DNA dC->dU-editing enzyme APOBEC-3G (Homo sapiens, UniProt Q9HC16); test: Dose Response confirmation of small molecule APOBEC3G DNA Deaminase Inhibitors via a fluorescence-based single-stranded DNA deaminase assay. [Related pubchem assays (depositor defined):AID493012, AID493028]; assay type: functional
# DNA dC->dU-editing enzyme APOBEC-3G, sequence (Q9HC16 whole entry): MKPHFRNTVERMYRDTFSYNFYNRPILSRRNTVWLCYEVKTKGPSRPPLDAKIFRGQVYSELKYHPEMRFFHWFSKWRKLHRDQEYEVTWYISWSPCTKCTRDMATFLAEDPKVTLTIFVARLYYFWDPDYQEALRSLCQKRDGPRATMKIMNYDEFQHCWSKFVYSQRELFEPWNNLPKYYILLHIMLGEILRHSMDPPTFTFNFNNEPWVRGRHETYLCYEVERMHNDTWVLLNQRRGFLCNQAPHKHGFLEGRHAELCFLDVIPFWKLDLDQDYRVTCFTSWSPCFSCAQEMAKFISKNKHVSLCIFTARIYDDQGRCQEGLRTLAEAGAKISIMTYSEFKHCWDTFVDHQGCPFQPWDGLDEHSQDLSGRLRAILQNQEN
# [4] = target: DNA dC->dU-editing enzyme APOBEC-3A (Homo sapiens, UniProt P31941); test: APOBEC3A DNA deaminase inhibitors, dose response, biochemical (AID 504722); assay type: functional
# DNA dC->dU-editing enzyme APOBEC-3A, sequence (P31941 whole entry): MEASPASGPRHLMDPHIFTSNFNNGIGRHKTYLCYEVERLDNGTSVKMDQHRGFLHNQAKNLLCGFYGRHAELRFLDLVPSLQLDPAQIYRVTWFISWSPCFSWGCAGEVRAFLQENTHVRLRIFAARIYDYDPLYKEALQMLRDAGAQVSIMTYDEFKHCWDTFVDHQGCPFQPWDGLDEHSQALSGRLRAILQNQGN
# [5] = C. albicans growth with fluconazole, confirmation, fluorescence, retest (AID 2467); assay type: functional, cell-based
# [6] = NIH-3T3 fibroblast cytotoxicity, dose response, cytotoxicity control, cell-based, fluorescence, Alamar Blue, secondary assay (AID 2327); assay type: functional;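 note: NIH-3T3 mouse fibroblasts cultured with fluconazole at 8 µg/mL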
# [7] = target: T1, Fatty acid synthase (Homo sapiens, UniProt P49327); test: FAS thioesterase domain inhibitors, dose response, biochemical, kinetic fluorescence intensity (AID 624326); assay type: functional;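 note: rate of fluorescence rise from hydrolysis of a fluorogenic O-methyl fluorescein ester substrate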
# T1 sequence (P49327 whole entry, the tested form may be a part): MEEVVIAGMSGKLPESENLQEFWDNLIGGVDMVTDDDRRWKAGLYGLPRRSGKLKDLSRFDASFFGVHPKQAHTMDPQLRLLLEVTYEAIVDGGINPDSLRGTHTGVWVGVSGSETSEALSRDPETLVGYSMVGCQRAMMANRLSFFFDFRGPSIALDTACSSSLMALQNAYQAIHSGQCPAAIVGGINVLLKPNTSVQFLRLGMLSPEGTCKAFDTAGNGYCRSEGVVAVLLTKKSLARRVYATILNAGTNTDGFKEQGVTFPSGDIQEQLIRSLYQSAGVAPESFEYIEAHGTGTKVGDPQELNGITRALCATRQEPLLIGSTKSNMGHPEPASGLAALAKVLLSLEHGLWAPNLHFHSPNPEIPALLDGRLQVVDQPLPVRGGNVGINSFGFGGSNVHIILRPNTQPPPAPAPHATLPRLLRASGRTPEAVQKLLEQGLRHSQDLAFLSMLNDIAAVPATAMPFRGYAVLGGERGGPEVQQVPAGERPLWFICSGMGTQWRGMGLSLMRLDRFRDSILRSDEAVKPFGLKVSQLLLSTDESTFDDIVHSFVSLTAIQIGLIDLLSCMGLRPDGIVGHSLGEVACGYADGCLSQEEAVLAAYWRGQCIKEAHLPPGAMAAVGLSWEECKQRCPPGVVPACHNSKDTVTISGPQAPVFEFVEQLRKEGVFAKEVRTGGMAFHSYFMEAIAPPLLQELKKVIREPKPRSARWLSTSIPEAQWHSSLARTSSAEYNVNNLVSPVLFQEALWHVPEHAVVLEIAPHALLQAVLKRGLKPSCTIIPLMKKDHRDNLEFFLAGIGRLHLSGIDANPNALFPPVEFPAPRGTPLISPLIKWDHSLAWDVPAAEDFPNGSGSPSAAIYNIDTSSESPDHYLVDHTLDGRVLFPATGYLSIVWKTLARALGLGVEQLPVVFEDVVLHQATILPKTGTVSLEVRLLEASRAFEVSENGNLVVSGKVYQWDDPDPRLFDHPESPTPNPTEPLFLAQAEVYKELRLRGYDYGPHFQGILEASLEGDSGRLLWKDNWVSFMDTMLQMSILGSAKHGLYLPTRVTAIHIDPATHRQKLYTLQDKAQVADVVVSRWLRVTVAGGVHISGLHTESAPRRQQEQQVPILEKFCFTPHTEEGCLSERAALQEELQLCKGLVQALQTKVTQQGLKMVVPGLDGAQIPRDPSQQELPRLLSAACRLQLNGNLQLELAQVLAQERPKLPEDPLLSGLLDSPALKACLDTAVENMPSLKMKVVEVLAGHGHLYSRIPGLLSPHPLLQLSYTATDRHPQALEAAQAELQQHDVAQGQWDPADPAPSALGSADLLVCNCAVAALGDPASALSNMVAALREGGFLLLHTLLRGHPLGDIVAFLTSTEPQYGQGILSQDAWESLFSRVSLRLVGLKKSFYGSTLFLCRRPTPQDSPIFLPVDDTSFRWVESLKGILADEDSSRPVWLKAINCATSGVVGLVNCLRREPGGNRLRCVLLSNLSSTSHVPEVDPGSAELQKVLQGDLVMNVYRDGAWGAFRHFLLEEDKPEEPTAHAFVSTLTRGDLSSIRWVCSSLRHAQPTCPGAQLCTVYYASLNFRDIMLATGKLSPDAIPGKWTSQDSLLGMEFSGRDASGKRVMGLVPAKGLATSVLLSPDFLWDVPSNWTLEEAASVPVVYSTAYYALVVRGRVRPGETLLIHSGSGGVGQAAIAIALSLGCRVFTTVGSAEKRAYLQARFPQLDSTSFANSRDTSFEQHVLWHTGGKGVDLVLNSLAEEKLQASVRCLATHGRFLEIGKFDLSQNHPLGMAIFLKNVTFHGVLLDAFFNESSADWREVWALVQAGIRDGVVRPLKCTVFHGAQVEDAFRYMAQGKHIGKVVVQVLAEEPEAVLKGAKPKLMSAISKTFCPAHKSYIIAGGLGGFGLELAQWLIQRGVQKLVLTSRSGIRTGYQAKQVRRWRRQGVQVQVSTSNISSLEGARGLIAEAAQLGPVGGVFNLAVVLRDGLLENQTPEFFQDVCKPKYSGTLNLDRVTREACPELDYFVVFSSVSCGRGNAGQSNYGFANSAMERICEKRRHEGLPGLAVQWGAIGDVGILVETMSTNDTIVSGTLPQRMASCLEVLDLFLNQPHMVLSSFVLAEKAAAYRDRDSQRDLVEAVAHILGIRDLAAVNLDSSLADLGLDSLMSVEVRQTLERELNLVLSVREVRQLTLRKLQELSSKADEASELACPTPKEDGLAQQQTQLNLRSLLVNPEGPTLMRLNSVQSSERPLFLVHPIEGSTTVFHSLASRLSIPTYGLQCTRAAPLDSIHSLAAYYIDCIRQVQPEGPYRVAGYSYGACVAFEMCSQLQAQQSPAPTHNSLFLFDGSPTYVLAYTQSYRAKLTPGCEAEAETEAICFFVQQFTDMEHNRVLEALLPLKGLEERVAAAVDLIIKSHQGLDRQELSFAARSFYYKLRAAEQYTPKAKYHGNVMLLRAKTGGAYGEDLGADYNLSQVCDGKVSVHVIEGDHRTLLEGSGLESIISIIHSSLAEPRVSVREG
# [8] = system: H9c2; test: cells; assay type: functional, cell-based; conditions: Rattus norvegicus, H9c2, Myocardium;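 note: confirmatory concentration-response retest of ultra-high-throughput screening hits for modulation of myocardial damage; cell death induced by hydrogen peroxide oxidative stress; compound pretreatment for 60 min then peroxide exposure for 2 h; potency is for protecting the cells against peroxide damage rather than for killing them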
# [9] = target: T1, Fatty acid synthase; test: FAS thioesterase domain inhibitors, dose response, biochemical, endpoint fluorescence intensity, uHTS hits (AID 624327); assay type: functional;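 note: fluorescence from hydrolysis of an O-methyl fluorescein acyl ester substrate by the enzyme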
# [10] = target: T2, Corticotropin-releasing factor receptor 2/Corticotropin-releasing factor-binding protein (Homo sapiens, UniProt P24387+Q13324); test: Dose Response confirmation of uHTS hits for small molecule antagonists of the CRF-binding protein and CRF-R2 receptor complex.; assay type: functional; conditions: read-out: IC50_Mean
# T2 sequence (Q13324 whole entry): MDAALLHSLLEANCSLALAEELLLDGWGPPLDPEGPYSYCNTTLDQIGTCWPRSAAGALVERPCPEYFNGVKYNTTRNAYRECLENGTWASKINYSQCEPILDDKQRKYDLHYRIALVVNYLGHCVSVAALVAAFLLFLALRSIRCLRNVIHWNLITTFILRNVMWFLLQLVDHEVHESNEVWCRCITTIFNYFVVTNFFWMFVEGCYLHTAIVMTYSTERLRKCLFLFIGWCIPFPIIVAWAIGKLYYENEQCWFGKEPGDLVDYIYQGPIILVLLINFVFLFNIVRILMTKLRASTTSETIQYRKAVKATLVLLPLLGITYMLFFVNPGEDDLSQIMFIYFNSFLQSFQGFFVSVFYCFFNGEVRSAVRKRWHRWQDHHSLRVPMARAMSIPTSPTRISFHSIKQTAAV
# T2 sequence (P24387 whole entry): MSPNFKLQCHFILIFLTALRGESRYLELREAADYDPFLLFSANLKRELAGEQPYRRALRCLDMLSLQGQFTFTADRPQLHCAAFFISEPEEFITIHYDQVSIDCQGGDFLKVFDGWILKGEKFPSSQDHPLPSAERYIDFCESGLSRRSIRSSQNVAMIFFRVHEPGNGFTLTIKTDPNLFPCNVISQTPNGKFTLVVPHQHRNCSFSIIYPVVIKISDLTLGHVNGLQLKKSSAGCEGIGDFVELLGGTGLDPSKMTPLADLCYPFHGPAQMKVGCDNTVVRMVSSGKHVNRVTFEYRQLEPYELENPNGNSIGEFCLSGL
# [11] = CRF-BP/CRF-R2 complex antagonists, dose response, cell-based, uHTS hits, 384-well (AID 651639); assay type: functional, Homo sapiens; conditions: read-out: IC50_Mean
# [12] = target: T2, Corticotropin-releasing factor receptor 2/Corticotropin-releasing factor-binding protein; test: activators of CRF receptor 2 with binding protein – uHTS hits, confirmation (AID 602473); assay type: functional; conditions: read-out: EC50_Mean
# [13] = target: FAD-linked sulfhydryl oxidase ALR (Homo sapiens, UniProt P55789); test: inhibitors of human ALR sulfhydryl oxidase, dose response, biochemical, H2O2 detection, luminescence, cherry-pick (AID 493248)
# FAD-linked sulfhydryl oxidase ALR, sequence (P55789 whole entry): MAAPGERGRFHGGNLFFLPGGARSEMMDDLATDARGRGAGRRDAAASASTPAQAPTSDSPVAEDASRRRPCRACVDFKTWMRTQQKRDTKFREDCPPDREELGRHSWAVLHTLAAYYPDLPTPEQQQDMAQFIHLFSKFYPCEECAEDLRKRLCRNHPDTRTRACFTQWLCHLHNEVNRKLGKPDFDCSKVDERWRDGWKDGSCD
# [14] = microbe, parasite or virus in culture; assay type: functional; conditions: Mycobacterium tuberculosis
# [15] = cells; assay type: functional, cell-based
# [16] = cells; assay type: functional, cell-based; remark: listed apart in the source
# [17] = THP-1 cell cytotoxicity, dose response, cytotoxicity control for non-replicating M. tuberculosis project (AID 489025); assay type: functional
# [18] = target: T3, Calpain-2 catalytic subunit (Sus scrofa, UniProt P43367); test: pig calpain II inhibitor potency, dose response, biochemical, fluorogenic peptide substrate (AID 1420); assay type: functional
# T3 sequence (P43367 whole entry): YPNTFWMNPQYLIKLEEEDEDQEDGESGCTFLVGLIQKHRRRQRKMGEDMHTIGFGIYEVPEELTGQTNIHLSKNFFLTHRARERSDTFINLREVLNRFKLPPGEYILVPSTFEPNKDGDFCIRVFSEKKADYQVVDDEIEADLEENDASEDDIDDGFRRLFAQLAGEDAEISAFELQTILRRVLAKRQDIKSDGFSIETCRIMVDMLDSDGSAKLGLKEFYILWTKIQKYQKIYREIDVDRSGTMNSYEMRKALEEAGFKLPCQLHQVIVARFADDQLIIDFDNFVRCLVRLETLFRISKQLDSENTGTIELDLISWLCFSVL
# [19] = inhibitors of clade B AD8 Env fusion, dose response, cell-based, cherry-pick (AID 652062); assay type: functional;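 note: luciferase signal from cell-cell fusion driven by HIV-1 clade B AD8 Env; potency is for inhibitors of fusion seen as a drop in luminescence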
# [20] = CEM21 lymphoblast cell cytotoxicity, dose response, cytotoxicity control for viral fusion inhibitor project, CellTiter-Glo luminescence, cherry-picked (AID 652042); assay type: functional, cell-based;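 note: potency for signal decrease meaning cytotoxicity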
# [21] = inhibitors of HIV Env-driven cell fusion, dose response, cherry-pick (AID 652057); assay type: functional, cell-based
# [22] = ZM109 Env clade C HIV-1 fusion inhibitors, dose response, HeLa effector, CEM target cells, luciferase, cherry-pick (AID 652058); assay type: functional, cell-based
# [23] = target: Paired box protein Pax-8 (Homo sapiens, UniProt Q06710); test: inhibitors of PAX8-driven TPO luciferase reporter, dose response, RMG-I cells, cherry-pick (AID 687027); assay type: functional, cell-based;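 note: luciferase reporter driven by Pax8 target thyroperoxidase promoter measured by SteadyGlo luminescence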
# Paired box protein Pax-8, sequence (Q06710 whole entry): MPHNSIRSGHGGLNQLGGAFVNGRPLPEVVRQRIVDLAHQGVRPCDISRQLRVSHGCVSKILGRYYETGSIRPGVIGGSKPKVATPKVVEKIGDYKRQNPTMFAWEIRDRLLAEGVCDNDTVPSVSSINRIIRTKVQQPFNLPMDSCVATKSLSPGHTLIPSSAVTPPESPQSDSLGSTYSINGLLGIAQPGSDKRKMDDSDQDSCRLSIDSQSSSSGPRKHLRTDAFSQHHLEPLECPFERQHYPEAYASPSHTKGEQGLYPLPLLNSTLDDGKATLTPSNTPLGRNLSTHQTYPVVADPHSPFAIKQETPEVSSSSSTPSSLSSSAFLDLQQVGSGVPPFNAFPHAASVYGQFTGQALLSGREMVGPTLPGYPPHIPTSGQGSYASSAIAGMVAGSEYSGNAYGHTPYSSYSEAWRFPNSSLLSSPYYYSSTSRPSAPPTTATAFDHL
# [24] = cytotoxicity in HEK-293T cells, dose response, cytotoxicity control for TCR NF-kB inhibitor project, luminescence, T-cell screen hits (AID 489026); assay type: functional, cell-based;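 note: cells exposed to compound about 14 hours before the viability readout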
compound,measurement,setting,value
C=CCn1c(S)nnc1-c1csc(-c2ccc(OC)c(OC)c2)n1,EC50,[1],> 0.736 µM (active)
same,EC50,[2],> 59.7 µM (inactive)
Sc1nnc(-c2ccccc2)n1/N=C/c1cccs1,IC50,[3],1.81 µM (active)
same,IC50,[4],> 100 µM (inactive)
same,EC50,[5],2.56 µM (active)
same,EC50,[6],> 160 µM (inactive)
CC(=O)N1CCN(c2ccccc2NC(=O)c2ccc(-c3cccc([N+](=O)[O-])c3)o2)CC1,IC50,[7],12.1 µM (active)
same,IC50,[8],> 79 µM (inactive)
same,IC50,[9],8.81 µM (active)
Cn1c(N)c(C(=O)COC(=O)CNS(=O)(=O)c2ccc(Cl)c(Cl)c2)c(=O)n(C)c1=O,IC50,[10],30.8 µM (active)
same,IC50,[11],9.63 µM (active)
same,EC50,[12],> 53 µM (inactive)
Cc1ccc(S(=O)(=O)c2nnn3c2nc(N2CCOCC2)c2ccccc23)cc1C,IC50,[10],5.78 µM (active)
same,IC50,[11],7.26 µM (active)
same,EC50,[12],> 53 µM (inactive)
COc1cccc(/C=N/n2c(S)nnc2-c2cc(C)[nH]n2)c1OC,IC50,[3],3.89 µM (active)
same,IC50,[4],> 100 µM (inactive)
same,AC50,[13],4.04 µM (active)
Cc1cc(OC(=O)c2cccs2)c2c3c(c(=O)oc2c1)CCCC3,IC50,[10],16.4 µM (active)
same,IC50,[11],> 20 µM (inactive)
same,CC50,[14],> 40 µM (active)
same,EC50,[12],> 53 µM (inactive)
CCN(CC(=O)Nc1ccc2c(c1)OCCO2)CC(=O)Nc1ccc2c(c1)OCO2,EC50,[15],> 350 µM (not active)
same,EC50,[16],> 350 µM (not active)
Cc1cc([N+](=O)[O-])nn1CC(=O)N/N=C/c1ccccc1Br,IC50,[7],7.28 µM (active)
same,IC50,[9],10.3 µM (active)
Cc1ccc2c(c1)C(=O)C(=O)N2CCCOc1ccccc1,CC50,[17],> 40 µM (active)
O=c1[nH]c(=O)n([C@@H]2O[C@H](CO)[C@@H](O)[C@H]2O)cc1F [5-FLUOROURIDINE],EC50,[1],> 59.6 µM (inactive)
same,EC50,[2],> 59.6 µM (inactive)
CC1Cc2ccccc2N1C(=O)COC(=O)Cn1nnc(-c2ccccc2)n1 (stereo not given),IC50,[18],8.56 µM (not active)
O=C(C[C@H]1CC[C@@H](NC(=O)c2cccc(F)c2)[C@@H](CO)O1)NCc1ccc(Oc2ccccc2)cc1,AC50,[19],1.2 µM (active)
same,AC50,[20],58.1 µM (active)
same,AC50,[21],0.525 µM (active)
same,AC50,[22],1.21 µM (active)
COc1cccc(CNC(=O)COC(=O)c2cc([N+](=O)[O-])ccc2N2CCCC2)c1,IC50,[7],1.23 µM (active)
same,IC50,[9],3.18 µM (active)
O=C(NC(=O)c1ccccc1O)c1ccc(C(F)(F)F)cc1,IC50,[10],4.31 µM (active)
same,IC50,[11],15 µM (active)
same,EC50,[12],9.51 µM (active)
Cc1csc(N(C(=O)CCNC(=O)c2ccc([N+](=O)[O-])cc2)c2ccccc2)n1,IC50,[7],4.74 µM (active)
same,IC50,[9],5.73 µM (active)
CCOC(=O)c1ccc(/N=c2\sc(C(=O)OC)cc(=O)n2CCCN2CCOCC2)cc1,IC50,[10],4.49 µM (active)
same,IC50,[11],4.53 µM (active)
same,EC50,[12],> 53 µM (inactive)
CC(C)(C)c1ccc(C(=O)NCC(=O)OCc2ccc([N+](=O)[O-])cc2)cc1,IC50,[7],1.69 µM (active)
same,IC50,[9],2.66 µM (active)
Cc1ccc(C)c(N2CCN(C(=O)C3CCCCN3S(=O)(=O)c3ccc(F)cc3)CC2)c1 (stereo not given),IC50,[18],7.84 µM (not active)
COc1ccc(OC)c(-c2nnc3n2N=C(c2ccc(OC)c(OC4CCCC4)c2)CS3)c1,AC50,[23],3.49 µM (active)
same,IC50,[24],28.3 µM (inactive)
Cn1cccc1/C=N/n1c(S)nnc1-c1ccco1,IC50,[3],3.92 µM (active)
same,IC50,[4],> 100 µM (inactive)
CSc1ccccc1NC(=O)COc1ccccc1C,IC50,[18],8.86 µM (not active)
N#CC1=C2SCN(c3ccccc3)CN2C(=O)CC1c1c(Cl)cccc1Cl (stereo not given),IC50,[3],4.44 µM (active)
same,IC50,[4],> 100 µM (inactive)
C[C@H](C(=O)N(C)C[C@@H]1OCc2ccccc2-c2c(n(C)c3ccccc23)C(=O)N([C@@H](C)CO)C[C@H]1C)c1ccccc1,AC50,[19],8.67 µM (active)
same,AC50,[20],22.5 µM (active)
same,AC50,[21],4.94 µM (active)
same,AC50,[22],12 µM (active)
CC(C)COc1cccc(C(=O)NNC(=O)C2COc3ccccc3O2)c1 (stereo not given),EC50,[15],> 350 µM (not active)
same,EC50,[16],> 350 µM (not active)
